Test results: ChEMBL document CHEMBL1141922, “Benzimidazoles as non-peptide luteinizing hormone-releasing hormone (LHRH) antagonists. Part 3: Discovery of 1-(1H-benzimidazol-5-yl)-3-tert-butylurea derivatives” (Bioorg Med Chem Lett, 2005)

Experiments:
[1] = molecular target: T1, Gonadotropin-releasing hormone receptor (Homo sapiens, UniProt P30968); assay: Inhibitory concentration against human leutinizing releasing hormone receptor
T1 sequence (P30968 whole entry): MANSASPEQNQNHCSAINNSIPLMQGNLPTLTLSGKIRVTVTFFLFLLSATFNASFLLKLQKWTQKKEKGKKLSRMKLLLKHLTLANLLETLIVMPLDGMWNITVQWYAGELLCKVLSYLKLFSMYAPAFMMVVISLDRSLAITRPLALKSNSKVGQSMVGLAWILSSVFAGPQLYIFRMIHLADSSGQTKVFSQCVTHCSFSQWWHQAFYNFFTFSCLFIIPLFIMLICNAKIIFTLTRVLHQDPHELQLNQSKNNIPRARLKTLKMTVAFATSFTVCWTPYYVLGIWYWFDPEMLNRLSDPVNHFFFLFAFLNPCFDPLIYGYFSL

[2] = molecular target: T2, Gonadotropin-releasing hormone receptor (Rattus norvegicus, UniProt P30969); assay: Inhibitory concentration against rat leutinizing releasing hormone receptor
T2 sequence (P30969 whole entry): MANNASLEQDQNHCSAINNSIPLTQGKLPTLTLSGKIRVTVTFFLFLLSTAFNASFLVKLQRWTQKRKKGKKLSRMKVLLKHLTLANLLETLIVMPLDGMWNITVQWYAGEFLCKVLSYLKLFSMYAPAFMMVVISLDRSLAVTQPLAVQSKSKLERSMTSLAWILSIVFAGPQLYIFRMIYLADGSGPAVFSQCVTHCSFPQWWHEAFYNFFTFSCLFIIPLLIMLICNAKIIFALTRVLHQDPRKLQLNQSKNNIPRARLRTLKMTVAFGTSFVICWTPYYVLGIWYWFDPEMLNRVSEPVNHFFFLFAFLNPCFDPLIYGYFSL

IC50 [1] [nM] | IC50 [2] [nM] | SMILES
570 | > 10000 | COc1ccc(C#N)cc1CSc1nc2cc(NC(=O)C3CC3)ccc2n1C(C)C
980 | > 10000 | COC(=O)c1ccc(OC)c(CSc2nc3cc(NC(=O)C4CC4)ccc3n2C(C)C)c1
3200 | > 10000 | Cc1ccccc1CSc1nc2cc(NC(=O)C3CC3)ccc2n1C(C)C
260 | > 10000 | COc1ccc(C(C)=O)cc1CSc1nc2cc(NC(=O)C3CC3)ccc2n1C(C)C
1900 | 1600 | COc1ccc([N+](=O)[O-])cc1CSc1nc2cc(NC(=O)NC3CC3)ccc2n1C(C)C
130 | 45 | CCCn1c(SCc2cc([N+](=O)[O-])ccc2OC)nc2cc(NC(=O)NC(C)(C)C)cc(C(=O)NCCc3ccncc3)c21
57 | 280 | COCCn1c(SCc2cc([N+](=O)[O-])ccc2OC)nc2cc(NC(=O)NC(C)(C)C)ccc21
350 | > 2600 | COc1ccc([N+](=O)[O-])cc1CSc1nc2cc(NC(=O)NC(C)(C)C)ccc2n1-c1ccccc1
360 | 300 | COc1ccc([N+](=O)[O-])cc1CSc1nc2cc(NC(=O)NC(C)(C)C)ccc2n1CCc1ccccc1
33 | 150 | COc1ccc([N+](=O)[O-])cc1CSc1nc2cc(NC(=O)NC(C)(C)C)ccc2n1Cc1cccnc1
23 | 330 | CCCCn1c(SCc2cc([N+](=O)[O-])ccc2OC)nc2cc(NC(=O)NC(C)(C)C)ccc21
600 | 280 | COc1ccc([N+](=O)[O-])cc1CSc1nc2cc(NC(=O)NC(C)C)ccc2n1C(C)C
170 | 19 | CCCn1c(SCc2cc([N+](=O)[O-])ccc2OC)nc2cc(NC(=O)NC(C)(C)C)cc(C(=O)NCCCN(C)C)c21
18 | 120 | CCCn1c(SCc2cc([N+](=O)[O-])ccc2OC)nc2cc(NC(=O)NC(C)(C)C)ccc21
410 | 490 | CCCn1c(SCc2cc([N+](=O)[O-])ccc2OC)nc2cc(NC(=O)NC(C)(C)C)cc(C(=O)NC(C)(C)C)c21
31 | 51 | CCCn1c(SCc2cc([N+](=O)[O-])ccc2OC)nc2cc(NC(=O)NC(C)(C)C)cc(C(=O)NCc3ccccn3)c21
1500 | 630 | COc1ccc([N+](=O)[O-])cc1CSc1nc2cc(NC(=O)C3CCC3)ccc2n1C(C)C
21 | 510 | CCCn1c(SCc2cc([N+](=O)[O-])ccc2OC)nc2cc(NC(=O)NC(C)(C)C)cc(C(=O)O)c21
43 | 670 | COc1ccc([N+](=O)[O-])cc1CSc1nc2cc(NC(=O)NC(C)(C)C)ccc2n1Cc1ccccn1
62 | 62 | COc1ccc([N+](=O)[O-])cc1CSc1nc2cc(NC(=O)NC(C)(C)C)ccc2n1C(C)C
190 | 21 | CCCn1c(SCc2cc([N+](=O)[O-])ccc2OC)nc2cc(NC(=O)NC(C)(C)C)cc(C(=O)NCCCN(C)Cc3ccccc3)c21
37 | 280 | CCCn1c(SCc2cc([N+](=O)[O-])ccc2OC)nc2cc(NC(=O)NC(C)(C)C)cc(C(=O)OC)c21
28 | 160 | COc1ccc([N+](=O)[O-])cc1CSc1nc2cc(NC(=O)NC(C)(C)C)ccc2n1Cc1ccccc1

IC50 [1] [nM] | IC50 [2] [nM] | SMILES
180 | > 10000 | COc1ccc([N+](=O)[O-])cc1CSc1nc2cc(NC(=O)C(C)(C)C)ccc2n1C(C)C
610 | 140 | CCCn1c(SCc2cc([N+](=O)[O-])ccc2OC)nc2cc(NC(=O)NC(C)(C)C)cc(C(=O)N3CCCC3)c21
280 | > 8200 | COc1ccc([N+](=O)[O-])cc1CSc1nc2cc(NC(=O)C3CC3)ccc2n1C(C)C
180 | 110 | COc1ccc([N+](=O)[O-])cc1CSc1nc2cc(NC(=O)CC(C)(C)C)ccc2n1C(C)C
27 | 56 | CCCn1c(SCc2cc([N+](=O)[O-])ccc2OC)nc2cc(NC(=O)NC(C)(C)C)cc(C(=O)NCCc3ccccn3)c21
270 | 200 | CCCn1c(SCc2cc([N+](=O)[O-])ccc2OC)nc2cc(NC(=O)NC(C)(C)C)cc(C(=O)N(C)C)c21
69 | 54 | CCCn1c(SCc2cc([N+](=O)[O-])ccc2OC)nc2cc(NC(=O)NC(C)(C)C)cc(C(=O)NCc3cccnc3)c21
79 | 860 | COc1ccc([N+](=O)[O-])cc1CSc1nc2cc(NC(=O)NC(C)(C)C)ccc2n1C1CC1
47 | 240 | COc1ccc([N+](=O)[O-])cc1CSc1nc2cc(NC(=O)NC(C)(C)C)ccc2n1Cc1ccncc1
6500 | > 10000 | Cc1cccc(CSc2nc3cc(NC(=O)C4CC4)ccc3n2C(C)C)c1
160 | > 10000 | COc1ccc(Cl)cc1CSc1nc2cc(NC(=O)C3CC3)ccc2n1C(C)C
210 | 880 | CCCCCn1c(SCc2cc([N+](=O)[O-])ccc2OC)nc2cc(NC(=O)NC(C)(C)C)ccc21
2100 | > 10000 | COc1ccccc1CSc1nc2cc(NC(=O)C3CC3)ccc2n1C(C)C
880 | 710 | COc1ccc([N+](=O)[O-])cc1CSc1nc2cc(NC(=O)OC(C)(C)C)ccc2n1C(C)C
160 | 110 | CCCn1c(SCc2cc([N+](=O)[O-])ccc2OC)nc2cc(NC(=O)NC(C)(C)C)cc(C(=O)NCCc3cccnc3)c21
61 | 35 | CCCn1c(SCc2cc([N+](=O)[O-])ccc2OC)nc2cc(NC(=O)NC(C)(C)C)cc(C(=O)NCc3ccncc3)c21
210 | 55 | CCCn1c(SCc2cc([N+](=O)[O-])ccc2OC)nc2cc(NC(=O)NC(C)(C)C)cc(C(=O)NCCN)c21
250 | 1500 | COc1ccc([N+](=O)[O-])cc1CSc1nc2cc(NC(=O)C(C)C)ccc2n1C(C)C
120 | 130 | CCCn1c(SCc2cc([N+](=O)[O-])ccc2OC)nc2cc(NC(=O)NC(C)(C)C)cc(C(=O)NCc3ccccc3)c21
6300 | > 10000 | CC(C)n1c(SCc2ccccc2Cl)nc2cc(NC(=O)C3CC3)ccc21
42 | 170 | CCn1c(SCc2cc([N+](=O)[O-])ccc2OC)nc2cc(NC(=O)NC(C)(C)C)ccc21
3300 | > 10000 | CNC(=O)Nc1ccc2c(c1)nc(SCc1cc([N+](=O)[O-])ccc1OC)n2C(C)C
41 | 23 | CCCn1c(SCc2cc([N+](=O)[O-])ccc2OC)nc2cc(NC(=O)NC(C)(C)C)cc(C(=O)NC)c21
